Test systems include SR leukemia; K-562 leukemia; 786-0 renal; MDA-MB-435; BT-549 breast; MDA-N; HS 578T breast; PC-3 prostate; DU-145 prostate; T-47D breast; RPMI-8226 leukemia; SF-539 CNS.
What all share (assay): NCI anticancer screen, dose series, 48 h

From PubChem BioAssay (NCI) come the findings set out here.

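Five compound concentrations were applied to cells in 96-well plates for 48 hours; endpoints were derived by simple linear interpolation of the resulting dose-response curve. At the GI50, growth is halved. TGI is the concentration that stops growth completely.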 Peptide text beside a SMILES is read from it. * marks the point of attachment. X34 = O=C(c1ccc(-c2ccc(Cl)cc2Cl)o1)* Where only a bound is given, the exact number is not on record here.

Regarding `CCOc1ccccc1Nc1ccc(N)cc1S(=O)(=O)O`, the TGI in the assay with SR leukemia, in the assay with K-562 leukemia, in the assay on 786-0 renal, in the assay with MDA-MB-435, with BT-549 breast and in the assay with MDA-N was > 100 µM each time. The TGI with HS 578T breast, with PC-3 prostate, in the assay on DU-145 prostate and in the assay on T-47D breast was > 100 µM throughout.

With `COc1ccc(C(=O)CCN(C)C)c2ccccc12`, the TGI with K-562 leukemia was found to be 60 µM; with 786-0 renal, 27.4 µM; with RPMI-8226 leukemia, 4.44 µM; in the assay with MDA-MB-435, 48.1 µM; with SF-539 CNS, 33.1 µM; in the assay on BT-549 breast it was 37.6 µM. Also, the TGI was 50.5 µM with MDA-N; 57 µM in the assay on HS 578T breast; 34 µM with PC-3 prostate; > 62 µM with DU-145 prostate; 49.5 µM in the assay on T-47D breast.

For `CC[C@@]1(O)C[C@H](OC2CC(N(C)C)C(OC3CC(O)C(OC4CCC(=O)C(C)O4)C(C)O3)C(C)O2)c2c(cc3c(c2O)C(=O)c2c(O)cccc2C3=O)C1C(=O)OC` (stereo partly drawn), in the assay on SR leukemia, the GI50 is 0.00493 µM. In addition, the TGI with SR leukemia was 1.23 µM; in the assay on MDA-N, 0.149 µM; with HS 578T breast it was 0.618 µM; with PC-3 prostate, 1.47 µM; in the assay on DU-145 prostate, 0.446 µM.

As to `CC1=C(SCCO)C(=O)c2ccccc2C1=O`, the TGI in the assay with SR leukemia is > 100 µM; in the assay with K-562 leukemia, > 100 µM; with MDA-MB-435, 23.9 µM; in the assay with SF-539 CNS, 24.9 µM; with BT-549 breast, 31.7 µM; with MDA-N it was 15.6 µM. Besides, the TGI was 40.4 µM with HS 578T breast, 25.1 µM in the assay on PC-3 prostate, 29.6 µM in the assay on DU-145 prostate and 20.5 µM in the assay on T-47D breast.

With `CC(=O)OC12CC[N+]3(C)CCCCC3C1=Nc1ccccc12` (stereo not drawn), the TGI in the assay on SR leukemia, in the assay with K-562 leukemia, in the assay with 786-0 renal, in the assay on RPMI-8226 leukemia, with MDA-MB-435 and in the assay on SF-539 CNS was > 100 µM throughout. Besides, the TGI in the assay with BT-549 breast, in the assay with MDA-N, with HS 578T breast, in the assay with PC-3 prostate, with DU-145 prostate and in the assay on T-47D breast was > 100 µM throughout.

For the compound `[C-]#[N+]C(=C\c1ccc(O)cc1)/C(=C/c1ccc(O)cc1)[N+]#[C-]`, the TGI in the assay on SR leukemia is 5.86 µM; in the assay on K-562 leukemia, > 100 µM; in the assay with 786-0 renal, > 100 µM; in the assay on RPMI-8226 leukemia, > 95.2 µM; in the assay with MDA-MB-435, > 19.8 µM; in the assay with BT-549 breast, > 23.1 µM. The TGI in the assay on MDA-N is 3.35 µM; in the assay with PC-3 prostate it was > 26.7 µM; in the assay with DU-145 prostate it was 7.23 µM; in the assay on T-47D breast, 12.1 µM.

`O=C1CCCCN1`: the TGI with K-562 leukemia, in the assay on RPMI-8226 leukemia and in the assay with SF-539 CNS was > 1120 µM each time.

On to `COc1nc2ccc(CNc3ccc(C(=O)NC(CCC(=O)O)C(=O)O)cc3)cc2nc1OC` (stereo not drawn), for which the TGI in the assay with SR leukemia, in the assay on K-562 leukemia, in the assay on RPMI-8226 leukemia, with MDA-MB-435, in the assay with BT-549 breast and in the assay on MDA-N was > 100 µM in each case. The TGI in the assay with HS 578T breast, in the assay on PC-3 prostate, with DU-145 prostate and in the assay on T-47D breast was > 100 µM in each case.

Take `CCCCC(=O)c1c(O)ccc2c(C)cc(=O)oc12`: the TGI with SR leukemia, with K-562 leukemia, with 786-0 renal, with RPMI-8226 leukemia, in the assay on MDA-MB-435 and with SF-539 CNS was > 100 µM in each case. The TGI in the assay with BT-549 breast is > 100 µM; with MDA-N, > 100 µM; in the assay on HS 578T breast it was > 100 µM; with PC-3 prostate, > 100 µM; in the assay with DU-145 prostate, > 100 µM; with T-47D breast it was 51.4 µM.

Regarding `COC(=O)C(CC(C)C)NC(=O)C(Cc1ccccc1)NC(=O)C1CCCN1C(=O)C(CO)NC(=O)c1ccc(-c2ccc(Cl)cc2Cl)o1` (stereo not drawn) (X34-SPFL-OMe; configuration not given here), the TGI is 89.2 µM with K-562 leukemia; 56.9 µM in the assay on 786-0 renal; 44.2 µM in the assay on RPMI-8226 leukemia; 90.3 µM with MDA-MB-435; 60.4 µM in the assay with SF-539 CNS; 75.7 µM in the assay on BT-549 breast. The TGI in the assay on MDA-N, with HS 578T breast, in the assay with PC-3 prostate, in the assay with DU-145 prostate and in the assay on T-47D breast was > 100 µM throughout.

For `O=S(=O)(O)c1cc(S(=O)(=O)O)c2c(N=Nc3ccc(S(=O)(=O)O)c4ccccc34)c(O)ccc2c1`, the TGI with K-562 leukemia, with 786-0 renal, in the assay on RPMI-8226 leukemia, with MDA-MB-435, in the assay with BT-549 breast and in the assay on MDA-N was > 100 µM in each case. For the same compound, the TGI with HS 578T breast, with PC-3 prostate, with DU-145 prostate and with T-47D breast was > 100 µM in each case.

Turning to `COc1cc2c3c(n(CCCn4cncn4)c(=O)c2cc1OC)-c1cc2c(cc1C3=O)OCO2`, the GI50 with SR leukemia is < 0.01 µM; in the assay on K-562 leukemia, 1.49 µM; in the assay with RPMI-8226 leukemia, < 0.0194 µM; with MDA-MB-435 it was > 100 µM; in the assay with BT-549 breast it was 31.1 µM; in the assay with HS 578T breast it was > 73.6 µM. Besides, the GI50 is 39.8 µM with PC-3 prostate and < 0.0293 µM with DU-145 prostate. The TGI with K-562 leukemia is 28.1 µM; in the assay on 786-0 renal it was > 49.3 µM; in the assay on RPMI-8226 leukemia it was 12.3 µM; in the assay on MDA-MB-435 it was > 100 µM; in the assay on SF-539 CNS, 19.6 µM; in the assay on BT-549 breast it was > 100 µM. Moreover, the TGI in the assay with HS 578T breast was > 100 µM; in the assay with PC-3 prostate it was > 100 µM; with DU-145 prostate it was > 34.7 µM; in the assay on T-47D breast, > 100 µM.
